Target: T1, O-GlcNAc transferase (OGT) (Homo sapiens, UniProt O15294)
T1 sequence (O15294 323-1041): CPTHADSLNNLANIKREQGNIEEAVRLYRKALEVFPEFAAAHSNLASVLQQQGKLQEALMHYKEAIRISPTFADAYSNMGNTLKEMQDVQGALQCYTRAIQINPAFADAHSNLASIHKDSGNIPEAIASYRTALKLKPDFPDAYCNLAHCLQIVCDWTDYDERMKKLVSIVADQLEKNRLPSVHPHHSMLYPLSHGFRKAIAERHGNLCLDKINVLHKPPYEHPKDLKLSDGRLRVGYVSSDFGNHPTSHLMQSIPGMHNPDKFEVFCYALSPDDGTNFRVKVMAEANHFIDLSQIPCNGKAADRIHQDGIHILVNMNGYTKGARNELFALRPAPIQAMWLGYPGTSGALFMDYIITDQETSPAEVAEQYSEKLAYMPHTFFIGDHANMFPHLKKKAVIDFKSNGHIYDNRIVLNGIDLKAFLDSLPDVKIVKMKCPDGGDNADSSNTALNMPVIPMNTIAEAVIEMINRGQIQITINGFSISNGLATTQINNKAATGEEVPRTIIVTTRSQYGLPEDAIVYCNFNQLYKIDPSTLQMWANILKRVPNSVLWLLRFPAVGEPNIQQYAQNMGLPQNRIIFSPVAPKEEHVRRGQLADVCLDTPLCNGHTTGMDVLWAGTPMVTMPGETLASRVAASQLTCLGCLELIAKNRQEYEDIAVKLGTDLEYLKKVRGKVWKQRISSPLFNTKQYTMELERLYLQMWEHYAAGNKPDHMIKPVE
Experiment: microscale thermophoresis
Type: binding

Compound | Kd
O=c1ccn([C@@H]2O[C@H](COP(=O)(O)OP(=O)(O)O)[C@@H](O)[C@H]2O)c(=O)[nH]1 [UDP] | confirming that the method produced Kds for UDP and UDP-GlcNAc similar to those
CC(=O)N[C@H]1[C@@H](OP(=O)(O)OP(=O)(O)OC[C@H]2O[C@@H](n3ccc(=O)[nH]c3=O)[C@H](O)[C@@H]2O)O[C@H](CO)[C@@H](O)[C@@H]1O [UDP-GlcNAc] | confirming that the method produced Kds for UDP and UDP-GlcNAc similar to those

— PMC6261342 (Journal of the American Chemical Society, 2018)
